Tests used:
[1] = tested on: rats with focal cerebral ischemia-reperfusion injury (MCAO rats); assay: Rat focal cerebral ischemia-reperfusion model (internal carotid artery suture method), area of cerebral infarction by TTC staining; format: in vivo, Sprague-Dawley (SD) rats; conditions: for Area of cerebral infarction (%): 24 hours after cerebral ischemia, mean ± SD; for area of cerebral infarction in MCAO rats (in words) / neurological deficits in MCAO rats: cilostazol at 1-15 mg/kg or edaravone at 1.67-8.33 mg/kg in the tail vein
Procedure: The experimental animals were divided into 4 groups, cilostazol group (1 mg/kg), edaravone group (5 mg/kg), cilostazol and edaravone composition group (6 mg/kg, cilostazol:edaravone=1:5, cilostazol 1 mg/kg+edaravone 5 mg/kg) and model group. After the cerebral ischemia model was established, the animals were assigned to each group in a single-blind manner with equal probability. After reperfusion, the animals were immediately administered intravenously with the drugs once. The animals in the model group were administered with an equal volume of normal saline. The animals were sacrificed 24 hours after cerebral ischemia, and their brains were taken out, stained, and photographed for determining the area of cerebral infarction.
The rat focal cerebral ischemia-reperfusion model was established by internal carotid artery suture method. The limbs (hind limbs above the knee joint and forelimbs below the wrist joint) and head of an anesthetized rat were tightened with rubber bands. The animal was fixed on an operating table in supine position, and was shaved with an animal shaver from the head to the chest, and the skin was disinfected with alcohol. The neck of the rat was cut at the midline, and the subcutaneous tissue was bluntly separated. The thin layer of fascia on the surface of the anterior triangle of the neck was separated, the lower side-lower edge of the clavicular hyoid muscle was pulled up, and the longitudinally pulsating artery parallel to this muscle can be seen. The arterial shell was opened, and the bifurcation of the right carotid artery was exposed. The right common carotid artery, external carotid artery and internal carotid artery were separated. The vagus nerve was gently stripped, and the external carotid artery was ligated and cut. The proximal end of the common carotid artery was clamped. An incision was made at the distal end from the ligature of the external carotid artery, and was inserted with a suture line, which was passed through the bifurcation of the common carotid artery into the internal carotid artery, and then was inserted slowly until reaching slight resistance (approximately 20 mm from the bifurcation), so as to block all blood supply to the middle cerebral artery. The suture line was slightly fixed below the incision of the external carotid artery with silk thread. The silk thread clamping the proximal end of the common carotid artery was loosened. A gauze soaked in sterile saline was covered on the wound, and the rat was placed on a heat preservation pad to keep warm. 2.0 h after cerebral ischemia on the right side, the suture line was pulled out gently to restore the blood supply for reperfusion. The external carotid artery was ligated with silk thread fixing the suture line. The skin was stitched, and disinfected. The rats were placed in clean feed, and their general condition and respiration were observed until they woke up from anesthesia. The rats were provided with food and water, and commonly reared.
The animals were subjected to evaluation of neurological deficit symptoms and then sacrificed with CO2. The brain was taken out by cutting off head. The olfactory bulb, cerebellum and lower brainstem were removed. The blood on the surface of the brain was washed with normal saline, and the residual water on the surface was removed. The brain was placed at −20° C. for 20 min, then taken out, immediately cut to a coronal section vertically downward at the crossing plane of the line of sight, and sliced backward every 2 mm. The brain slices were incubated in 1% TTC staining solution (at 37° C. for 30 min). The normal brain tissue was stained into dark red, and the ischemic brain tissue was stained into pale white. After being washed with normal saline, the brain slices were quickly arranged in a row from front to back, removed off the residual water on the surface, and photographed. […]

[2] = tested on: rats with focal cerebral ischemia-reperfusion injury (MCAO rats); assay: as above; format: in vivo, Sprague-Dawley (SD) rats; conditions: 24 hours after cerebral ischemia, mean ± SD
[3] = tested on: mice with focal cerebral ischemia-reperfusion injury (MCAO mice); assay: Mouse focal cerebral ischemia-reperfusion model (internal carotid artery suture method), area of cerebral infarction by TTC staining; format: in vivo, C57BL/6J mice; conditions: cilostazol at 3.33-16.67 mg/kg or edaravone at 3.33-16.67 mg/kg in the tail vein
Procedure: The animals were subjected to evaluation of neurological deficit symptoms and then sacrificed with CO2. The brain was taken out by cutting off head. The olfactory bulb, cerebellum and lower brainstem were removed. The blood on the surface of the brain was washed with normal saline, and the residual water on the surface was removed. The brain was placed at −20° C. for 20 min, then taken out, immediately cut to a coronal section vertically downward at the crossing plane of the line of sight, and sliced backward every 2 mm. The brain slices were incubated in 1% TTC staining solution (at 37° C. for 30 min). The normal brain tissue was stained into dark red, and the ischemic brain tissue was stained into pale white. After being washed with normal saline, the brain slices were quickly arranged in a row from front to back, removed off the residual water on the surface, and photographed.
Calculation of area of cerebral infarction: The photos were processed by Image J software, and the corresponding area of left brain and non-infarction area of right brain were calculated according to the formula, so that the percentage of the area of infarction was calculated.
The experimental animals were divided into 4 groups, a model group and three groups of compositions of cilostazol/edaravone (respectively a group of cilostazol 3.33 mg/kg+edaravone 16.67 mg/kg in 1:5; a group of cilostazol 5.71 mg/kg+edaravone 14.29 mg/kg in 1:2.5; a group of cilostazol 10 mg/kg+edaravone 10 mg/kg in 1:1, and each composition was administered at a total amount of 20 mg/kg). After the cerebral ischemia model was established, the animals were assigned to each group in a single-blind manner with equal probability. After reperfusion, the animals were immediately administered intravenously with the drugs once. The animals in the model group were administered with an equal volume of normal saline. The animals were sacrificed 24 hours after cerebral ischemia, and their brains were taken out, stained, and photographed for determining the area of cerebral infarction.
Establishment of focal cerebral ischemia-reperfusion model: The mouse focal cerebral ischemia-reperfusion model was established by internal carotid artery suture method. An anesthetized mouse was fixed on an operating table in a supine position. The neck of the mice was cut at the midline, and the subcutaneous tissue was bluntly separated. The right common carotid artery, external carotid artery, and internal carotid artery were separated. […]

plasma protein = conditions: background statement; cited from earlier work

Structure (SMILES)	Area of cerebral infarction (%) ([1]; Example 1, edaravone 5 mg/kg i.v. once immediately after reperfusion, model group 40.35 ± 8.24)	Area of cerebral infarction (%) ([1]; Example 2, edaravone 5 mg/kg i.v. once immediately after reperfusion, model group 40.50 ± 8.51)	area of cerebral infarction in MCAO rats (in words) [1]	neurological deficits in MCAO rats [1]	Area of cerebral infarction (%) ([2]; Example 3, edaravone 3 mg/kg i.v. once immediately after reperfusion, model group 39.41 ± 9.56)	area of cerebral infarction in MCAO mice (in words) [3]	neurological deficits in MCAO mice [3]	binding rate to plasma protein (plasma protein)	Area of cerebral infarction (%) ([1]; Example 1, cilostazol 1 mg/kg i.v. once immediately after reperfusion, 2.0 h ischemia, model group 40.35 ± 8.24)	Area of cerebral infarction (%) ([2]; Example 2, cilostazol 5 mg/kg i.v. once immediately after reperfusion, model group 40.50 ± 8.51)	Area of cerebral infarction (%) ([2]; Example 3, cilostazol 15 mg/kg i.v. once immediately after reperfusion, model group 39.41 ± 9.56)
CC1=NN(c2ccccc2)C(=O)C1 [Edaravone, 3-methyl-1-phenyl-2-pyrazolin-5-one]	29.35 ± 10.45	29.49 ± 9.06	reduce the area of cerebral infarction	significantly ameliorate the neurological deficits	31.24 ± 6.83	reduce the area of cerebral infarction	significantly ameliorate the neurological deficits				
O=C1CCc2cc(OCCCCc3nnnn3C3CCCCC3)ccc2N1 [Cilostazol]			reduce the area of cerebral infarction	significantly ameliorate the neurological deficits		reduce the area of cerebral infarction	significantly ameliorate the neurological deficits	about 95%	34.24 ± 7.25	32.59 ± 7.15	27.26 ± 9.74

— patent publication US20240122917A1, “USE OF COMPOSITION CONTAINING CILOSTAZOL IN CEREBROVASCULAR DISEASES” (NEURODAWN PHARMACEUTICAL CO., LTD., priority 2021, published 2024)
